From patent US20050220837A1, “Antimicrobial hyaluronic acid coatings for orthopedic implants” (priority 2003, published 2005)

System: hTERT cells
Experiment: cytotoxicity of chlorhexidine on viability/adhesion of hTERT cells (Calcein AM / Ethidium homodimer)
Type: cell-based, human
Conditions: 24 h
Description: A separate experiment was carried out to measure the cytotoxicity of different chlorhexidine concentrations on the viability/adhesion of hTERT cells. hTERT cells were cultured as described above onto Thermanox discs in four well plates, but the DMEM with 10% FCS was inoculated with 0.1%, 1% or 10% chlorhexidine. Two control discs were also included containing just DMEM with 10% FCS, one disc was in the same plate as the chlorhexidine samples and the other in a separate four well plate. Plates were incubated at 37° C. for 24 h, before the media was removed and 1 ml DMEM (no FCS) containing 1 μl/ml Calcein AM (reacts with live cells) and 1 μl/ml Ethidium homodimer (reacts with dead cells) was added. The plates were incubated at 37° C. in the dark for a further 30 minutes, then the Thermanox discs were imaged using a Zeiss Epifluorescence microscope. Live well spread cells were seen on the sample not exposed to chlorhexidine, while dead cells were observed on the surface cultured in the same plate as samples exposed to chlorhexidine.

[H]/N=C(\N/C(=N/[H])NCCCCCCNC(=N)NC(=N)Nc1ccc(Cl)cc1)Nc1ccc(Cl)cc1 [chlorhexidine]
hTERT cells on Thermanox disc after exposure (0.1% chlorhexidine in DMEM with 10% FCS): No cells were seen
hTERT cells on Thermanox disc after exposure (1% chlorhexidine in DMEM with 10% FCS): No cells were seen
